Assay results reported in paper PMC12582325 (Proceedings of the National Academy of Sciences of the …, 2025).
Where “and” joins values, the source holds several entries; their conditions need not be identical. Equal entries are not always repeated. Where a SMILES comes first, the peptide text is derived from it.

Tests used:
[1] = test system: F. oxysporum on tomato roots; experiment: Tomato root inoculation and fluorescence microscopy of infected roots; format: in vivo, Fusarium oxysporum / Solanum lycopersicum; conditions: exogenous addition of pheromone to microconidia; 3 d after inoculation; fluorescence microscopy
[2] = test system: F. oxysporum infection of tomato plants; experiment: Tomato plant mortality assay; format: in vivo, Fusarium oxysporum / Solanum lycopersicum; conditions: groups of 10 plants; 3.2 × 10^6 microconidia/mL supplemented with pheromone once at inoculation; 50 d; Kaplan-Meier, log-rank
Protocol: Tomato plant infection assays were performed as described ([61]) with F. oxysporum microconidia and treatment inoculation as described above. Plants were transferred to a growth and plant survival was recorded daily for 50 d. Plant death was diagnosed as a complete collapse of the stem, without any green parts left. The Kaplan–Meier test was used to assess statistical significance of differences in survival among groups using the log-rank test in GraphPad Prism. The infection experiment was conducted two times with 10 plants per condition.

Fo.Ste2 [3] = format: cell-based, Fusarium oxysporum
[4] = test system: no_GPCR (negative control lacking a GPCR); format: cell-based, Saccharomyces cerevisiae
Fo.Ste2 [5] = format: cell-based, Fusarium oxysporum; remark: listed apart in the source
F. oxysporum germ tubes = conditions: gradient of 400 μM pheromone against the solvent (50% methanol); 13 h; water-agar; three biological replicates; Fig. 5A
Protocol: For the B. bassiana and F. oxysporum chemotropism assay and plant infection assays the pheromones were dissolved in 50% (v/v) MeOH to reach a concentration of 4,000 μM.
Fungal chemotropism was conducted as previously described ([11]). For each compound or combination of compounds tested, 300 hyphal tips were scored. All experiments were performed in three biological replicates.

Bb.Ste2 = format: cell-based, Beauveria bassiana
[6] = test system: F. oxysporum microconidia; experiment: Germination of F. oxysporum microconidia; format: cell-based, Fusarium oxysporum f. sp. lycopersici 4287; set-up: Germination of F. oxysporum microconidia (data of Sup.Fig.10): unit not given here; conditions: for Germination of F. oxysporum microconidia (data of Sup.Fig.10): 400 μM pheromone, 13 h, at least 300 spores counted
Protocol: For F. oxysporum microconidia production, the strain was grown for 3 to 4 d in liquid potato dextrose broth (PDB) at 28 °C and 170 rpm. Germination media ([10]) was used for assessing the spore germination. RE was prepared by removing 2-wk-old tomato plants from vermiculite and washing the roots to remove any adhering substrates ([11]).
Supplementary Figure 10. Germination of F. oxysporum microconidia after 13 h of incubation in Germination Media at a cell density of […] microconidia/mL. The assay was performed with 400 μM of pheromone. All points represent the average of three biological replicates in which at least 300 spores were counted. Statistical significance was determined through one-way analysis of variance (ANOVA) with Dunnett’s multiple comparisons (✱p ≤ 0.05).

Hj.Hpr2 = format: cell-based, Hypocrea jecorina
[7] = test system: F. oxysporum in tomato roots; experiment: Quantification of fungal DNA in tomato roots (qPCR); conditions: 3 d after inoculation, washed roots; compared to the untreated infected roots; three biological replicates
[8] = SC + added peptide, individual replicates (n=3), SC alone: 0, 0, 0

## CC(C)C[C@H](NC(=O)[C@H](CS)NC(=O)[C@@H](N)Cc1c[nH]c2ccccc12)C(=O)N[C@@H](Cc1c[nH]c2ccccc12)C(=O)N[C@@H](C)C(=O)NCC(=O)N[C@@H](CCC(N)=O)C(=O)N1CCC[C@H]1C(=O)N[C@@H](CS)C(=O)N[C@@H](Cc1c[nH]c2ccccc12)C(=O)O [A4] (H-WCLWAGQPCW-OH; N-terminus assumed)
[1]
  Adhesion of F. oxysporum germ tubes among themselves or to tomato roots: increased adhesion
[2]
  Tomato plant survival: no significant difference in plant survival
Fo.Ste2 [3]
  Activation of Fo.Ste2 biosensor, in words: agonists for Fo.Ste2
  logEC50: -9.288
Fo.Ste2 [3]; read-out: half-maximal effective concentration (EC50)
  EC50: 0.516 nM
[4]; [8]
  barcode qPCR of diploids, no_GPCR x Fg.Pheromone: 0.035 and 0.012 and 0
  barcode qPCR of diploids, no_GPCR x Hj.Pheromone: 0.002 and 0 (2×)
[4]; SC + added peptide, individual replicates (n=3), SC alone: 0, 0, 0.004
  barcode qPCR of diploids, no_GPCR x Bb.Pheromone: 0.013 and 0.091 and 0
[4]; SC + added peptide, individual replicates (n=3), SC alone: 0, 0, 0.007
  barcode qPCR of diploids, no_GPCR x Fo.Pheromone: 0.014 and 0.039 and 0.054
[4]; SC + added peptide, individual replicates (n=3), SC alone: 0.001, 0.001, 0
  barcode qPCR of diploids, no_GPCR x no_Pheromone: 0.04 and 0 and 0.015
[4]; consortium in SC media, 10 μM external peptide, P = 0.013
  Fold increase in diploids of the negative control lacking a GPCR: 19 fold
Fo.Ste2 [5]
  Fold decline in diploids containing Fo.Ste2: 0.2 fold
  Mean 2 (SC + peptide), Fo share of diploids: 0.1003
Fo.Ste2 [5]; n = 3
  Mean Diff, SC vs. + peptide: 0.3913
F. oxysporum germ tubes
  Chemotropic response in F. oxysporum germ tubes: significant chemotropic response
Bb.Ste2
  Fold increase in formation of diploids containing Bb.Ste2: 8.7 fold
  Mean 2 (SC + peptide), Bb share of diploids: 0.4075
Bb.Ste2; n = 3
  Mean Diff, SC vs. + peptide: -0.3609
[6]; biological replicate 1 (first line)
  Germination of F. oxysporum microconidia (data of Sup.Fig.10): 15
[6]; biological replicate 2 (second line)
  Germination of F. oxysporum microconidia (data of Sup.Fig.10): 33,88
[6]; biological replicate 3 (third line)
  Germination of F. oxysporum microconidia (data of Sup.Fig.10): 6,9
[6]; Sup.Fig.10, Dunnett's multiple comparisons test, n = 3
  Mean Diff, Solvent vs. peptide: 25,18
[6]; Sup.Fig.10, Solvent control mean 43,77, mean of n = 3
  Mean 2 (peptide), germination: 18,59
[6]; exogenous addition of 400 μM peptide, 13 h in Germination Media, 3.2 x 106 microconidia/mL
  Effect on F. oxysporum microconidia germination, in words: significant reduction
Hj.Hpr2
  Fold increase in formation of diploids containing Hj.Hpr2: 12.1 fold
  Mean 2 (SC + peptide), Hj share of diploids: 0.02456
  barcode qPCR of diploids, Hj.HPR2 x Bb.Pheromone: 0
  barcode qPCR of diploids, Hj.HPR2 x no_Pheromone: 0
Hj.Hpr2; n = 3
  Mean Diff, SC vs. + peptide: -0.02252
[7]
  Fungal biomass in inoculated tomato roots (qPCR of Fol4287 actin gene, 2^−ΔΔCt, normalized to tomato gapdh): significant reduction in fungal biomass
Fg.Ste2; SC + added peptide, individual replicates (n=3), SC alone: 0.003, 0.004, 0.001
  barcode qPCR of diploids, Fg.Ste2 x Hj.Pheromone: 0
Fg.Ste2; SC + added peptide, individual replicates (n=3), SC alone: 0.005, 0.005, 0.013
  barcode qPCR of diploids, Fg.Ste2 x Fo.Pheromone: 0.012 and 0.1 and 0.242
Fg.Ste2; SC + added peptide, individual replicates (n=3), SC alone: 0.012, 0.001, 0.003
  barcode qPCR of diploids, Fg.Ste2 x no_Pheromone: 0.015 and 0.01 and 0.037
Fg.Ste2; SC + added peptide, individual replicates (n=3), SC alone: 0.012, 0.009, 0.006
  barcode qPCR of diploids, Fg.Ste2 x Bb.Pheromone: 0.004 and 0 (2×)
Fg.Ste2; SC + added peptide, individual replicates (n=3), SC alone: 0.206, 0.237, 0.235
  barcode qPCR of diploids, Fg.Ste2 x Fg.Pheromone: 0.014 and 0.192 and 0
Fg.Ste2; consortium in SC media, 10 μM external peptide
  Fold reduction of Fg.Ste2 and Fg.Pheromone interaction: 0.3 fold
Fg.Ste2; consortium in SC media, 10 μM external peptide, three biological replicates
  Fold increase in diploids containing Fg.Ste2: without increasing
